Assay results from patent US11547697B2, “Heterocyclic compounds and uses thereof” (MILLENNIUM PHARMACEUTICALS, INC., priority 2009, dated 2023).
Read-outs that look alike come from different tables or passages of the source.

Columns and labels:
[1] = test system: tumor cells with a PI3Kα mutation (e.g., MDA-MB-361 and T47D); assay: Proliferation of tumor cells with PI3Kα mutation; assay type: cell-based; details: Homo sapiens, T47D cells
p110γ = p110γ (Homo sapiens (Human), UniProt P48736); assay: PI 3-Kinase (human) HTRF assay, p110γ; assay type: biochemical; details: read-out: PI3K γ IC50
p110α/p85α = p110α/p85α (Homo sapiens (Human), UniProt P42336); assay: PI 3-Kinase (human) HTRF assay, p110α/p85α; assay type: biochemical; details: read-out: PI3K α IC50
recombinant mTOR = recombinant mTOR (Homo sapiens (Human), UniProt P42345); assay: mTOR inhibition assay (radiometric or LanthaScreen TR-FRET); assay type: biochemical; details: read-out: MTORC IC50
Protocol: The compounds described herein can be tested against recombinant mTOR (Invitrogen) in an assay containing 50 mM HEPES, pH 7.5, 1 mM EGTA, 10 mM MgCl2, 2.5 mM, 0.01% Tween, 10 pM ATP (2.5 μCi of μ-32P-ATP), and 3 μg/mL BSA. R^at recombinant PHAS-1/4EBP1 (Calbiochem; 2 mg/mL) is used as a substrate. Reactions are terminated by spotting onto nitrocellulose, which is washed with 1M NaCl/1% phosphoric acid (approximately 6 times, 5-10 minutes each). Sheets are dried and the transferred radioactivity quantitated by phosphorimaging.
For instance, one can use Invitrogen's LanthaScreen™ Kinase assay to test the inhibitors of mTOR disclosed herein. This assay is a time resolved FRET platform that measures the phosphorylation of GFP labeled 4EBP1 by mTOR kinase. The kinase reaction is performed in a white 384 well microtitre plate. The total reaction volume is 20 ul per well and the reaction buffer composition is 50 mM HEPES pH7.5, 0.01% Polysorbate 20, 1 mM EGTA, 10 mM MnCl2, and 2 mM DTT. In the first step, each well receives 2 ul of test compound in 20% dimethylsulphoxide resulting in a 2% DMSO final concentration. Next, 8 ul of mTOR diluted in reaction buffer is added per well for a 60 ng/ml final concentration. To start the reaction, 10 ul of an ATP/GFP-4EBP1 mixture (diluted in reaction buffer) is added per well for a final concentration of 10 μM ATP and 0.5 μM GFP-4EBP1. The plate is sealed and incubated for 1 hour at room temperature. […] The plate is sealed, incubated for 1 hour at room temperature, and then read on a plate reader set up for LanthaScreen™ TR-FRET. Data is analyzed and IC50s are generated using GraphPad Prism 5.

p110δ/p85α = p110δ/p85α (Homo sapiens (Human), UniProt O00329); assay: PI 3-Kinase (human) HTRF assay, p110δ/p85α; assay type: biochemical; details: read-out: PI3K δ IC50
p110β/p85α = p110β/p85α (Homo sapiens (Human), UniProt P42338); assay: PI 3-Kinase (human) HTRF assay, p110β/p85α; assay type: biochemical; details: read-out: PI3K β IC50
[2] = read-out: T47D proliferation IC50

recombinant mTOR, sequence (P42345 1360-2549): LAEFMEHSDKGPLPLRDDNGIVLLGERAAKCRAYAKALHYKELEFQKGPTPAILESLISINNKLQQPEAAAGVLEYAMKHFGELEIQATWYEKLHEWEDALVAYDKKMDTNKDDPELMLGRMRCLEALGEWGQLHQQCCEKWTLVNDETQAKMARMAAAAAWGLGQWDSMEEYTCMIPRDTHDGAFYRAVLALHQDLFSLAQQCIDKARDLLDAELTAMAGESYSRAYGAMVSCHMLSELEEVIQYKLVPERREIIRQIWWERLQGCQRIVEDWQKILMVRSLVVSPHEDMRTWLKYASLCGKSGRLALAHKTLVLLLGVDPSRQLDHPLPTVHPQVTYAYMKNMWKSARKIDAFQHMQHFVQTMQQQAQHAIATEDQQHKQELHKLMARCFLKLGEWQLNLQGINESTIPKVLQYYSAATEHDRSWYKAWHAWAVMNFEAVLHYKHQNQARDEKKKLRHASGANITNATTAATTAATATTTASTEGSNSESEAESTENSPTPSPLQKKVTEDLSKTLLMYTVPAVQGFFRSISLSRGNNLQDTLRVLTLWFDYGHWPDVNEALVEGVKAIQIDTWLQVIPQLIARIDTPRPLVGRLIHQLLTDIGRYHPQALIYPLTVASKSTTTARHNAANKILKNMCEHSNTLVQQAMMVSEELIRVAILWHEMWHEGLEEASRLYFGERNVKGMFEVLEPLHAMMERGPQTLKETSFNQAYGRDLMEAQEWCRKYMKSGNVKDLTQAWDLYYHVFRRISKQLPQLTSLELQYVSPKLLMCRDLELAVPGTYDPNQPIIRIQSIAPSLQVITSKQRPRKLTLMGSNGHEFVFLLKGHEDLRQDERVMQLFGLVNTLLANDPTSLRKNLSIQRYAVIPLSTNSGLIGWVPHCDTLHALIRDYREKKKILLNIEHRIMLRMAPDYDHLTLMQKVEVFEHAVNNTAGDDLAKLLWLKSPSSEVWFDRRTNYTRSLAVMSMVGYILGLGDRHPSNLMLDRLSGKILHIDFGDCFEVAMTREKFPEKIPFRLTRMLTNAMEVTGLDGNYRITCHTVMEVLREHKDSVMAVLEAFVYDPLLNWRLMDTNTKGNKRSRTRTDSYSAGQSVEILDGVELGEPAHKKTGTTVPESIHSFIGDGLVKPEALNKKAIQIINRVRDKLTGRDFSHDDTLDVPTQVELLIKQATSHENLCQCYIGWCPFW
p110β/p85α, sequence (P42338 whole entry): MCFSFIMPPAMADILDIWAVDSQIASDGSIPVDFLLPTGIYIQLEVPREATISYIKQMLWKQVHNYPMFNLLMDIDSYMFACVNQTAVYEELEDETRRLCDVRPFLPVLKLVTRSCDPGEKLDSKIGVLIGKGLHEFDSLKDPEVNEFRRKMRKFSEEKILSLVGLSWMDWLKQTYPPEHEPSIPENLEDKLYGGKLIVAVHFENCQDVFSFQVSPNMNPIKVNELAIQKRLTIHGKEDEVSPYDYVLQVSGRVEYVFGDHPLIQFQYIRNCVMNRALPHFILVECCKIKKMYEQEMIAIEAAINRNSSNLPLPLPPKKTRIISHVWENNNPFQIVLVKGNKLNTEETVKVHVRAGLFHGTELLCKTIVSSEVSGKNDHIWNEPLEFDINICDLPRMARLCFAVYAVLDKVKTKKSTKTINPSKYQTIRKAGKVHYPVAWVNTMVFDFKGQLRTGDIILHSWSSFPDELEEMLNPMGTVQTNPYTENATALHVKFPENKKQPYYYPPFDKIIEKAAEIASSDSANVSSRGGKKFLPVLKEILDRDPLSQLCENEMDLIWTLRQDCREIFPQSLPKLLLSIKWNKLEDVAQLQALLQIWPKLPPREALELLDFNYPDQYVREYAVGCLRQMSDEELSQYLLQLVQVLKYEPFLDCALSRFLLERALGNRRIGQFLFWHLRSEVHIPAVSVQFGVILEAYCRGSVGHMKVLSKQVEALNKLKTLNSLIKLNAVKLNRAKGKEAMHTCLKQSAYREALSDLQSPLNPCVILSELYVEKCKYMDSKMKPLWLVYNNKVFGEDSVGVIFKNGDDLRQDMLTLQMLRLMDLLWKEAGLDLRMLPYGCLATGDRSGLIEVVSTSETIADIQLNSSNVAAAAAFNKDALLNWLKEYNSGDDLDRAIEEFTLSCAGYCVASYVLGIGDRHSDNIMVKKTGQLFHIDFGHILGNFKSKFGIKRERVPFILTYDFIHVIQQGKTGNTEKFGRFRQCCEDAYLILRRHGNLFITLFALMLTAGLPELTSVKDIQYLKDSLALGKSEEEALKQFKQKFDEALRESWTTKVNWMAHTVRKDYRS
p110β/p85α, sequence (P27986 whole entry partner): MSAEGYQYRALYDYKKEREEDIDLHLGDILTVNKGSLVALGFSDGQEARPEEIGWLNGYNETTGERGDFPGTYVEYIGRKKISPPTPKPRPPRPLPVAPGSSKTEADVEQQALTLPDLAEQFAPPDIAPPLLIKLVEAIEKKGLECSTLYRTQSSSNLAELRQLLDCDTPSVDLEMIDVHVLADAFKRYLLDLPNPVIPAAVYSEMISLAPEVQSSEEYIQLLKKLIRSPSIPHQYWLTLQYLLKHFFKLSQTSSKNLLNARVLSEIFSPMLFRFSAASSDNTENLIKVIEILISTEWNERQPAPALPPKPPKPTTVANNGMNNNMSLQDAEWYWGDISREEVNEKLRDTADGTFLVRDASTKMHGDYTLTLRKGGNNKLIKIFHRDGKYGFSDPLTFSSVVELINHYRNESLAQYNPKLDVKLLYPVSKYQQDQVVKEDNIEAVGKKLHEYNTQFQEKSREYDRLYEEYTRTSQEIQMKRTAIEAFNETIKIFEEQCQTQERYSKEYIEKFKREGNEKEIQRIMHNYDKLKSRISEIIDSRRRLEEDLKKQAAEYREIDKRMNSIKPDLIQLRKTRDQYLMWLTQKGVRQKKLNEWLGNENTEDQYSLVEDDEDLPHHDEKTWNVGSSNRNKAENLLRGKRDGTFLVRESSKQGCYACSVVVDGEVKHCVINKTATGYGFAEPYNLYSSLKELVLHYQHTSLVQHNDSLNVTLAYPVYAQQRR
p110δ/p85α, sequence (O00329 whole entry): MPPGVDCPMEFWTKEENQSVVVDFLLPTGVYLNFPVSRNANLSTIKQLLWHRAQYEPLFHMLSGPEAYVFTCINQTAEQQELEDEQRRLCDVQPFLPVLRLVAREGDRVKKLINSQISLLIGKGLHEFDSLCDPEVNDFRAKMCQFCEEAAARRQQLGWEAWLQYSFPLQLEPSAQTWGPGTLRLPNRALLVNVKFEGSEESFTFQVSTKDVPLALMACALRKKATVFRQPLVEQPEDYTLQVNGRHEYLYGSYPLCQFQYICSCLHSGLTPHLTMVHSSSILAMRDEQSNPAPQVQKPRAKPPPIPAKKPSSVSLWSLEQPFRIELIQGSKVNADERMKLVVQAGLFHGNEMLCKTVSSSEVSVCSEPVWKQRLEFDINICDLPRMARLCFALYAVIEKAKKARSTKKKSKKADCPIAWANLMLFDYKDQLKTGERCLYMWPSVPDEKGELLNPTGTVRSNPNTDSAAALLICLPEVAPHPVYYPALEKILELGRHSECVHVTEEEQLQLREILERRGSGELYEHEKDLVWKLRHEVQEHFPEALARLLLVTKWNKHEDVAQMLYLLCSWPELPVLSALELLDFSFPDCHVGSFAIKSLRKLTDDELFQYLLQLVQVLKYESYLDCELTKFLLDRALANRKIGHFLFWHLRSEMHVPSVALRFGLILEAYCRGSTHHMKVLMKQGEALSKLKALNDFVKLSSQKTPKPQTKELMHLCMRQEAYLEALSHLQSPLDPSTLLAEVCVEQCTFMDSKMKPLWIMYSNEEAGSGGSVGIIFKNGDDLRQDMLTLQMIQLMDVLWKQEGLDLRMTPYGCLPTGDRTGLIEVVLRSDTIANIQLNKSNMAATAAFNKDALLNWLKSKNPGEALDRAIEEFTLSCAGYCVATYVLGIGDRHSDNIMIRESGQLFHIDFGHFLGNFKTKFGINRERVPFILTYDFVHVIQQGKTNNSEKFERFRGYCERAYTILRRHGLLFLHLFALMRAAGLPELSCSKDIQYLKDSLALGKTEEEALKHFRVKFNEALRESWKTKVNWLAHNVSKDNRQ
p110δ/p85α, sequence (P27986 whole entry partner): as the sequence (P27986 whole entry partner) above

Row | SMILES | IC50 ([1]; read-out: T47D proliferation) [nM] | IC50 (p110γ) [nM] | IC50 (p110α/p85α) [nM] | IC50 (recombinant mTOR) [nM] | IC50 (p110δ/p85α) [nM] | IC50 (p110β/p85α) [nM] | IC50 [1, 2] [nM] | IC50 (p110γ; in vitro) [nM] | IC50 (p110α/p85α; in vitro) [nM] | IC50 (recombinant mTOR; in vitro) [nM] | IC50 (p110β/p85α; in vitro) [nM] | IC50 (p110δ/p85α; in vitro) [nM]
1 | CN1CCC(Nc2ncnc3ccc(-c4ccc5oc(N)nc5c4)cc23)CC1 [compound 35] | < 10000 | < 100 | < 100 | < 10000 | < 100 | – | – | – | – | – | – | –
2 | Cn1cc(-c2cnc3ccc(-c4ccc5oc(N)nc5c4)cn23)cn1 [compound 41] | < 10000 | < 1000 | < 100 | < 10000 | < 1000 | – | – | – | – | – | – | –
3 | Nc1nc2cc(-c3ccc4ncnc(OC5CCOCC5)c4c3)ccc2o1 [compound 47] | < 1000 | < 1000 | < 100 | < 100 | < 1000 | < 1000 | – | – | – | – | – | –
4 | Nc1nc2cc(-c3ccc4ncc(OC5CCOCC5)nc4c3)ccc2o1 [compound 49] | < 10000 | < 1000 | < 100 | < 10000 | < 10000 | – | – | – | – | – | – | –
5 | CCOC(=O)N1CCN(c2cnc3ccc(-c4ccc5oc(N)nc5c4)cc3n2)CC1 [compound 119] | < 10000 | < 10000 | < 100 | < 10000 | < 10000 | < 10000 | – | – | – | – | – | –
6 | Nc1nc2cc(-c3ccc4ncc(N5CC(C(=O)N6CCOCC6)C5)nc4c3)ccc2o1 [compound 169] | < 1000 | < 1000 | < 100 | < 10000 | < 1000 | < 1000 | – | – | – | – | – | –
7 | CN1CCN(C(=O)C2CN(c3cnc4ccc(-c5ccc6oc(N)nc6c5)cc4n3)C2)CC1 [compound 170] | < 1000 | < 10000 | < 100 | < 10000 | < 1000 | < 1000 | – | – | – | – | – | –
8 | C[C@@H]1CN(C(=O)C2CN(c3cnc4ccc(-c5ccc6oc(N)nc6c5)cc4n3)C2)CCN1 [compound 267] | – | – | – | – | – | – | < 1000 | < 1000 | < 100 | < 10000 | < 10000 | < 1000
9 | CC(C)[C@@H](N)C(=O)N1CCN(c2cnc3ccc(-c4ccc5oc(N)nc5c4)cc3n2)CC1 [compound 270] | – | – | – | – | – | – | < 1000 | < 1000 | < 100 | < 10000 | < 1000 | < 1000
10 | CN1CCN(C2CN(c3cnc4ccc(-c5ccc6oc(N)nc6c5)cc4n3)C2)CC1 [compound 274] | – | – | – | – | – | – | < 1000 | < 10000 | < 100 | < 10000 | < 10000 | < 10000
11 | Nc1nc2cc(-c3ccc4ncc(N5CC(C(=O)N6CCN(C7CC7)CC6)C5)nc4c3)ccc2o1 [compound 276] | – | – | – | – | – | – | < 1000 | < 1000 | < 100 | < 10000 | < 10000 | < 1000
12 | CN1CCN(c2cnc3ccc(-c4ccc5oc(N)nc5c4)cc3n2)CC1=O [compound 277] | – | – | – | – | – | – | < 1000 | < 1000 | < 100 | < 10000 | < 1000 | < 10000
13 | Nc1nc2cc(-c3ccc4ncc(N5CCN(C(=O)[C@@H](N)CO)CC5)nc4c3)ccc2o1 [compound 298] | – | – | – | – | – | – | < 10000 | < 10000 | < 100 | < 10000 | < 1000 | < 10000
14 | Cc1nccn1C1CN(c2cnc3ccc(-c4ccc5oc(N)nc5c4)cc3n2)C1 [compound 354] | – | – | – | – | – | – | < 1000 | < 10000 | < 100 | < 10000 | < 10000 | < 10000
